Read-outs that look alike come from different tables or passages of the source.
What was measured:
Plasmodium berghei = conditions: curcumin orally 100 mg/kg in combination with Artemisinin at 0.75 and 1.5 mg/mouse; cited from earlier work
[1] = system: malaria (P. falciparum) infection; experiment: Clinical trials in Haiti: 16-day low-dose Artemisinin with or without Citrus bioflavonoid; format: in vivo, human; conditions: single 16-day treatment; daily Artemisinin: babies 25 mg, children 2-12 years 50 mg, adults 100 mg; n=17
Method: In one example, patients in Haiti with non-complicated and complicated malaria (P. falciparum) infection were recruited to test the efficacy of peroxybioflavonoid treatment. The treated patient population included infants (n=7), children under age 18 (n>100), and adults (n>75).
Each day, babies were given 25 mg, children 2-12 years old received 50 mg and adults 100 mg of Artemisinin (low-dose Artemisinin). In some patients, Artemisinin was given alone. In other patients, the Artemisinin was combined with Citrus bioflavonoid (peroxybioflavonoid). Patients were treated for 16 days.

[2] = in vivo, cited from earlier work; for half-life in the blood: po
[3] = lambs; cited from earlier work
Staphylococcus aureus = conditions: cited from earlier work; for growth inhibitory action: alone; for effect with berberine against Staphylococcus aureus: combination with berberine, attributed to inhibition of MDR pump
[4] = after consumption of 200 mg of naringenin, present in grapefruit juice; cited from earlier work
Plasmodium falciparum = conditions: cited from earlier work; for antimalarial effect: alone, catechins from a crude green tea extract; for effect on Artemisinin activity in vitro: combination with Artemisinin

Compound: COc1cc(/C=C/C(=O)CC(=O)/C=C/c2ccc(O)c(OC)c2)ccc1O [curcumin]
- survival rate of infected mice (Plasmodium berghei): increased survival rate

Compound: C[C@@H]1CC[C@H]2[C@@H](C)C(=O)O[C@@H]3O[C@@]4(C)CC[C@@H]1[C@]32OO4 [Artemisinin]
- remained free of malaria post-treatment [1]: up to nine
- half-life [2]: very short

Compound: O=c1c(O)c(-c2ccc(O)c(O)c2)oc2cc(O)cc(O)c12 [quercetin]
- bioavailability of moxidectin [3]: increase the bioavailability

Compound: COc1cc2oc(-c3ccc(O)c(O)c3)c(OC)c(=O)c2c(O)c1OC [chrysosplenol-D]
- growth inhibitory action (Staphylococcus aureus): very weak
- effect with berberine against Staphylococcus aureus (Staphylococcus aureus): synergistic effect

Compound: COc1cc(-c2oc3cc(OC)c(OC)c(O)c3c(=O)c2OC)ccc1O [chrysoplenetin]
- growth inhibitory action (Staphylococcus aureus): very weak
- effect with berberine against Staphylococcus aureus (Staphylococcus aureus): synergistic effect

Compound: O=C1C[C@@H](c2ccc(O)cc2)Oc2cc(O)cc(O)c21 [naringenin]
- plasma concentrations [4]: ≤ 6.0 µM

Compound: CCO[C@H]1O[C@@H]2O[C@@]3(C)CC[C@H]4[C@H](C)CC[C@@H]([C@H]1C)[C@@]24OO3 [arteether]
- half-life ([2]; im): 7 to 9 h
- half-life in the blood [2]: 1 to 2 h

Compound: catechin gallate
- antimalarial effect (Plasmodium falciparum): antimalarial effects of their own
- effect on Artemisinin activity in vitro (Plasmodium falciparum): potentiate the effects of Artemisinin

Compound: C[C@H]1[C@H](OC(=O)CCC(=O)O)O[C@@H]2O[C@@]3(C)CC[C@H]4[C@H](C)CC[C@@H]1[C@@]24OO3 [artesunate]
- half-life ([2]; im): 7 to 9 h
- half-life in the blood [2]: 1 to 2 h

Compound: O=C(O[C@@H]1Cc2c(O)cc(O)cc2O[C@@H]1c1cc(O)c(O)c(O)c1)c1cc(O)c(O)c(O)c1 [epigallocatechin gallate]
- antimalarial effect (Plasmodium falciparum): antimalarial effects of their own
- effect on Artemisinin activity in vitro (Plasmodium falciparum): potentiate the effects of Artemisinin
